Patent USRE38825E1, “Glyphosate tolerant plants” (Monsanto Technology LLC, priority 1990, dated 2005)

Target: LBAA glyphosate oxidoreductase variant v.247 (v1v2v3: GLY84, ARG153, ARG334), SEQ ID NO:18 (Ochrobactrum sp. G-1, UniProt D2KI28, H334R/K153R/S2A/S84G)
Test: Kinetic analysis of glyphosate oxidoreductase variant v.247
Type: biochemical, bacterial isolate LBAA (Pseudomonas strain LBAA)
Method: The mutagenesis procedure used was that of Mn++-poisoned PCR and the template was a linearized glyphosate oxidoreductase gene plasmid containing the synthetic glyphosate oxidoreductase gene (SEQ ID NO:8). The oligonucleotide primers used were homologous to regions in the vector and flanking the glyphosate oxidoreductase gene. The PCR conditions employed were as follows: 1 minute at 94° C., 2 minutes at 55° C., and 3 minutes at 72° C. and with 35 cycles. A 5:1 ratio of dCTP+dGTP+TTP to dATP was used. The reactions contained MnCl2 at 125, 250, 375, or 500 μM. After the reaction, the amplified product was recloned into a vector containing a weak E. coli promoter. This vector was a pBR327 derivative containing the araBAD promoter and suitable cloning sites. One hundred colonies from this cloning step were then screened in E. coli GB993 for improved glyphosate tolerance and utilization phenotypes in media composed of MOPS minimal medium with glyphosate and Pi or with glyphosate alone, respectively. Growth rates were determined by measuring A550 over a 96 hour period. […] The glyphosate oxidoreductase gene was recloned into the expression vector portion and this phenotype verified. All kinetic analysis was performed on crude E. coli lysates. Putative glyphosate oxidoreductase variant proteins were overexpressed after subcloning the NcoI/HindIII variant glyphosate oxidoreductase gene into PrecA-gene10L expression vector. For overexpression in PrecA-gene10L constructs, GB993 cells containing the vector were induced at a Klett=110-120 in M9 minimal medium with 50 μg/ml nalidixic acid and allowed to grow for 2.5 hours at 37° C. with vigorous shaking. Cells were harvested by centrifugation at 4000 g, 5 minutes at 4° C., and resuspend in 100 mM Tris-HCl, pH 7.1, 1 mM EDTA, 35 mM KCl, 20% glycerol, and 1 mM benzamidine at 3 ml/g cell pellet. Lysates were prepared by breaking the cells in a French press, twice, at 1000 psi. Insoluble debris was removed by centrifugation at 12000 g, 15 minutes at 4° C., and the supernatant was de-salted by passing over a PD-10 column (Sephadex G-25, Pharmacia). The void volume fraction was used as the source of enzyme for kinetic analysis. Protein concentrations were determined using the Bio-Rad protein dye-binding assay. Time and enzyme concentration courses were performed to determine linear ranges. […] Ten minutes was determined to be the optimal time for the enzyme assay using 10 μg lysate. After 10 minutes at 30° C. with shaking, 0.25 ml dinitrophenylhydrazine (DNPH) reagent (0.5 mg/ml in 0.5M HCl) was added and the reaction was allowed to proceed for an additional 5 minutes at 30° C. with shaking. A 1.5M NaOH solution (400 μl) was then added to the assay mix, and the reaction was continued for 5 minutes at 30° C. with shaking. Enzyme activity was determined from the amount of glyoxylate-DNPH adduct formed by measuring A520 against a standard of glyoxylate. Enzyme assays are performed in duplicate on at least two different single colony isolates of a putative glyphosate oxidoreductase variant. To determine Km and Vmax, enzyme assays were performed over a (0.2-2.0)×Km range of glyphosate concentrations. The Km and Vmax were determined from Lineweaver Burk, Eadie-Hofstee and hyperbolic kinetic plots. Vmax was estimated after determining the amount of immunoreactive glyphosate oxidoreductase protein in lysates by immunoblot analysis as described below. Immunoblot analysis was performed following SDS-PAGE and transfer of protein from the gel to nitrocellulose at 500 mA in a Hoeffer transfer apparatus in 25 mM Tris-HCl, 192 mM glycine containing 0.1% SDS and 25% methanol for 1-2 hours. After transfer, the nitrocellulose was incubated with 50 mM Tris-HCl, pH7.5, 0.9% NaCl, 0.01% Tween 20, 0.02% NaN3 containing 2% bovine serum albumin at room temperature with shaking for at least 30 minutes. […]

Question: With `O=C(O)CNCP(=O)(O)O` [glyphosate, N-phosphonomethyl-glycine] as the molecule, how does the VmKm (domain switch experiment, v.247 (v1v2v3), substrate glyphosate) read?
Answer: 0.34

Question: And the “VmKm (Glyp)” value (v.247)?
Answer: .23

Question: What about the “lower Km for glyphosate than the wild type glyphosate oxidoreductase” value (v.247 versus wild type) of the same molecule?
Answer: 10 fold

Question: And the “app Vm (Glyp)” value (v.247, pH 7.4, 30° C.)?
Answer: 0.6 U/mg
